Measured values from patent publication US20070219208A1, “Methods for Treating Cancer” (priority 2006, published 2007).
Entries after “also recorded” stand apart in the source; their conditions may differ.

Columns and labels:
[1] = tested on: MCF-7 breast cancer cells; experiment: MTT reduction cytotoxicity assay in MCF-7 cells; details: pretreatment before simvastatin or fluvastatin (10 μM), 48 h; mevalonate 20 μM, 1400 W 10 μM
Description: MTT Reduction Cytotoxicity Assay:
MTT is taken up by cells and is reduced to a colored formazon product that can be detected by spectrophotometry (max=562 nm). Reduction of MTT is dependent upon the mitochondrial respiratory function, and thus measures the relative number of viable cells in the culture. After the treatment was completed, MCF-7 cells were washed twice with DPBS and taken in a ml of MEM without FBS and incubated with 5 mg/ml MTT solution for 1 h at 37° C. Medium was removed and cells were solubilized in DMSO. The absorption was measured at 562 nm with reference at 630 nm.
We assessed the effectiveness of simvastatin and fluvastatin to induce cytotoxicity in MCF-7 cells. MCF-7 breast cancer cells were treated with fluvastatin or simvastatin at different concentrations (0.5-20 μM) for 24-48 h. The changes in the number of viable cells were determined using the MTT assay that monitors the intracellular conversion of MTT to formazon spectrophotometrically max=562 nm).

MCF-7 cells = experiment: 3H-thymidine uptake (DNA synthesis / cell proliferation); format: cell-based; details: mevalonate 20 μM with simvastatin or fluvastatin
Description: Thymidine Uptake Studies:
DNA synthesis was measured by monitoring the uptake of tritiated thymidine, [^3H]TdR (Perkin-Elmer, Boston, Mass.). Cells (5×10^5/ml) were cultured with different concentrations of simvastatin or fluvastatin (0-10 μM) in the presence or absence of mevalonate (20 μM), 1400 W, or sepiapterin. Cells were pulse-chased with [^3H]TdR [0.5 μCi (0.185 MBq)/well during the last 3 h of a 24 h culture, harvested onto glass filters with an automatic cell harvester (Cambridge Technology, Cambridge, Mass.), and counted using the LKB Betaplate scintillation counter (Wallac, Gaithersburg, Md.). All experiments were performed in triplicate and repeated three times.

iNOS in MCF-7 cells = experiment: iNOS mRNA (RT-PCR) and protein (Western) levels; format: cell-based; details: mevalonate 20 μM
Description: After treatment with statins, cells were washed with ice-cold DPBS and resuspended in 150 μl of radioimmune precipitation assay buffer (20 mM Tris-HCl, pH 7.4, 2.5 mM EDTA, 1% Triton X-100, 1% sodium deoxycholate, 1% SDS, 100 mM NaCl, 100 mM sodium fluoride) containing 1 mM sodium vanadate, 10 μg/ml aprotinin, 10 μg/ml leupeptin, and 10 μg/ml pepstatin inhibitors. Cells were homogenized by passing the suspension through a 25-gauge needle (20 strokes). The lysate was centrifuged at 750×g for 10 min at 4° C. to pellet out the nuclei. The remaining supernatant was centrifuged for 30 min at 12,000×g. Protein was determined using the Lowry method and 50 μg of the lysate was used for the Western blot analysis. Proteins were resolved using the SDS-polyacrylamide gels and blotted onto nitrocellulose membranes. Membranes were washed with TBS (140 mM NaCl, 50 mM Tris-HCl, pH 7.2) containing 0.1% Tween 20 (TBST) and 5% skim milk to block the non-specific protein binding. Membranes were incubated with 1 μg/ml rabbit anti-iNOS polyclonal antibody (Abeam, Cambridge, Mass.), mouse anti-cyclin D1 antibody, mouse anti-cyclin E antibody (BD Biosciences, San Jose, Calif.) or rabbit anti-p27 antibody (Chemicon International, Temecula, Calif.) in TBST for overnight at 4° C., washed 5 times with TBST, and then incubated with goat anti-rabbit or rabbit anti-mouse IgG-horseradish peroxidase-conjugated secondary antibody (1:5,000) for 1.5 h at room temperature. The band was detected using the ECL method (Amersham Biosciences).
Following the treatments, medium was aspirated and 1 ml of TRIzol reagent (Invitrogen) was added and total RNA was extracted using the manufacturer's protocol. Five μg of RNA was used for the first strand cDNA synthesis using a first strand cDNA synthesis kit (Amersham Biosciences). […]

[2] = tested on: NO2-/NO3- levels in MCF-7 cells; experiment: Nitrite and nitrate measurements by chemiluminescence (NO analyzer); format: cell-based; details: with simvastatin or fluvastatin (10 μM), 40 h; mevalonate 20 μM, 1400 W 10 μM, sepiapterin 50 μM; compared to statin alone
Description: Briefly, following treatments, cells were washed three times with DPBS after aspirating the medium. To this, 1 ml of Hanks' balanced salt mixture containing 25 μM L-arginine was added and incubated for 30 min at 37° C. The medium was collected and centrifuged for 5 min at 5000 rpm, and 50 μl of the clear supernatant was used for nitrate and nitrite analysis. Each sample was analyzed in triplicate.

[3] = tested on: arginase II in MCF-7 cells; experiment: Arginase II transcript levels by RT-PCR; format: cell-based; details: mevalonate 20 μM
Description: Following the treatments, medium was aspirated and 1 ml of TRIzol reagent (Invitrogen) was added and total RNA was extracted using the manufacturer's protocol. Five μg of RNA was used for the first strand cDNA synthesis using a first strand cDNA synthesis kit (Amersham Biosciences). Four μl of the cDNA mixture was used to amplify mRNA's of iNOS [(5′-[…]-3′, SEQ ID NO:1) and (5′-[…]-3′, SEQ ID NO:2)], arginase I [(5′-[…]-3′, SEQ ID NO:3) and (5′-[…]-3′, SEQ ID NO:4)], arginase II [(5′-[…]-3′, SEQ ID NO:5) and (5′-[…]-3′, SEQ ID NO:6)], and eNOS [(5′-[…]-3′, SEQ ID NO:7) and (5′-[…]-3′, SEQ ID NO:8)].

[4] = tested on: cyclin D1, cyclin E and p27 in MCF-7 cells; experiment: Cell cycle protein levels by Western analysis (cyclin D1, cyclin E, p27); format: cell-based; details: 1400 W 10 μM or mevalonate 20 μM
Description: A (Table): The cell cycle distribution of MCF-7 cells treated with either simvastatin or fluvastatin (5-10 μM) for 40 h in the presence or 1400 W (10 μM) or mevalonate (20 μM). The cell sorting was performed by flow cytometry as described in “Materials and Methods.” B: Cells were treated with simvastatin or fluvastatin (10 μM) in the presence or absence of 1400 W (10 μM) or mevalonate (20 μM) for 40 h and cyclins D1 and E protein levels were measured by the Western analysis using the corresponding polyclonal or monoclonal antibodies. Data are representative of three separate experiments.
After treatment with statins, cells were washed with ice-cold DPBS and resuspended in 150 μl of radioimmune precipitation assay buffer (20 mM Tris-HCl, pH 7.4, 2.5 mM EDTA, 1% Triton X-100, 1% sodium deoxycholate, 1% SDS, 100 mM NaCl, 100 mM sodium fluoride) containing 1 mM sodium vanadate, 10 μg/ml aprotinin, 10 μg/ml leupeptin, and 10 μg/ml pepstatin inhibitors. Cells were homogenized by passing the suspension through a 25-gauge needle (20 strokes). The lysate was centrifuged at 750×g for 10 min at 4° C. to pellet out the nuclei. The remaining supernatant was centrifuged for 30 min at 12,000×g. Protein was determined using the Lowry method and 50 μg of the lysate was used for the Western blot analysis. […] The band was detected using the ECL method (Amersham Biosciences).

CC(O)(CCO)CC(=O)O (stereo not drawn) [mevalonate]
effect on statin-induced MCF-7 cell cytotoxicity (MTT assay) [1]: significantly reversed | effect on statin inhibition of 3H-thymidine uptake (MCF-7 cells): partially reversed | effect on statin-induced iNOS (iNOS in MCF-7 cells): inhibited | effect on statin-induced NO / NO2-/NO3- levels [2]: inhibited; also recorded: suppressed | effect on statin-induced down-regulation of Arg II level [3]: reversed | effect on statin-induced decrease of cyclin D1 and cyclin E [4]: restored in part
